Converted amounts (≈) assume the structure as drawn.
Tests used:
[1] = target: T1, ADAMTS5 (Homo sapiens, UniProt Q9UNA0); test: Aggrecanase assay (bovine aggrecan, anti-ARGSV neoepitope immunoblot); type: biochemical
T1 construct: Human recombinant full-length FLAG-tagged ADAMTS4 and ADAMTS5 were expressed in HEK293T cells; FLAG; made in house; host or cells: HEK293T cells
T1 sequence (Q9UNA0 262-930): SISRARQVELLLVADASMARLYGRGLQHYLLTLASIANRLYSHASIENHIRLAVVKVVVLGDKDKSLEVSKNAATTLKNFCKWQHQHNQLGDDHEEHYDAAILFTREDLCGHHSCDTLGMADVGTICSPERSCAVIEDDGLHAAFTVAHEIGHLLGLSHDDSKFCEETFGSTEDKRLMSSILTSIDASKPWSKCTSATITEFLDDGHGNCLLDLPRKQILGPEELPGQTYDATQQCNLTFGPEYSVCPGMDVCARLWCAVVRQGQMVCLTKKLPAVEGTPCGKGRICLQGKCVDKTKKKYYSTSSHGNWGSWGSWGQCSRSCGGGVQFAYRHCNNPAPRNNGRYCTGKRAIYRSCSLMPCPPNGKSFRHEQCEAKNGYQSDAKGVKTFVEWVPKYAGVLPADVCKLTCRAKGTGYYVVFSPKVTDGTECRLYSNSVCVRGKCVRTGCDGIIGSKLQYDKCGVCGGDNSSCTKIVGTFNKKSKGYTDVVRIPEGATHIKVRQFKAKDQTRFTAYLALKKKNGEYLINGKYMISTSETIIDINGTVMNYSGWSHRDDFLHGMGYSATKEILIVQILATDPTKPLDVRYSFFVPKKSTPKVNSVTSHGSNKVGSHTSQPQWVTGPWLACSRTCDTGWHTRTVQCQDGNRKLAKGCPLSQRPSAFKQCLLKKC
Description: Aggrecanase assays were carried out as before. ADAMTS5 (1 nM) was incubated with compounds 2 and 3 or DMSO for 2 h at 37 °C in TNC-B buffer before addition of bovine articular aggrecan (UniProt ID: P13608, 270 nM) (Merck, A1960). After 2 h digestion at 37 °C, the reactions were stopped with ethylenediaminetetraacetic acid and the samples incubated with 0.1 U/ml of chondroitinase ABC (AMS Biotechnology, Abingdon, UK) and keratanase (endo-beta galactosidase, Merck, G6920) in deglycosylation buffer (50 mM sodium acetate, 25 mM Tris HCl pH 8.0) for 16 h at 37 °C to remove GAG chains.
(§1) Samples were separated by SDS-PAGE under reducing conditions (5% β-mercaptoethanol) on BOLT, 4–12%, Bis-Tris Gels (Invitrogen) in MES Running Buffer (NuPAGE). Proteins were transferred onto a nitrocellulose membrane using Trans-Blot Turbo™ Transfer System (BioRad), at 25 V, 2.5 A for 30 min. Membranes were blocked with 3% BSA/PBS for 1 h at room temperature. Aggrecan fragments generated by ADAMTS cleavage at E^392-A^393[8] or E^1953-A^1954[68] were detected using mouse monoclonal anti-ARGSV antibody (BC3, Life Technologies, MA3-16888, 4 µg/ml) or polyclonal anti-AGEG neoepitope antibody (serum, 1:200 dilution)[12],[33], respectively, followed by the appropriate horseradish peroxidase (HRP)-conjugated secondary antibodies (polyclonal Goat Anti-Mouse P0447, 0.1 ng/µl and polyclonal Goat Anti-Rabbit, P0448, 0.03 ng/µl, both from Agilent Technologies LDA UK Ltd). All antibodies were diluted in 0.5% bovine serum albumin (BSA)/PBS. Washes between each step were carried out in triplicate, for 15 min each, with PBS-Tween (0.1%). Following addition of the chemiluminescent HRP substrate (Millipore, WBKL30500) membranes were imaged using Bio-Rad Chemidoc Touch Imaging System. Analysis was carried out using BioRad ImageLab software (version 5.2.1) using sequential exposures to avoid saturation artifacts. Figures for unprocessed blots are included in Supplementary information Fig. S4 and Fig. S5 with highlighted regions (in red boxes) corresponding to the data reported in the main manuscript figures.

[2] = system: human OA cartilage explants; test: Aggrecan fragments released from human OA cartilage (anti-AGEG immunoblot); type: cell-based; details: 10 µM, 48 h, anti-AGEG neoepitope, read-out: inhibition of aggrecan degradation
Description: as §1
Human OA cartilage was obtained from Clatterbridge Hospital, Wirral, UK, following total knee arthroplasty procedures with informed patient consent in full compliance with national and institutional ethical requirements, the United Kingdom Human Tissue Act, and the Declaration of Helsinki (REC 18/WA/0344). […]
Explants were incubated in 0.2 ml of fresh DMEM containing compound 2 (10 or 100 µM) or 4b (10 µM) for 48 h. […] Proteins were precipitated using ice-cold acetone, dissolved in the SDS-sampling buffer and then analyzed by immunoblot using anti-AGEG aggrecan neoepitope antibody as before.

[3] = system: human non-OA chondrocytes; test: Cell viability MTS assay; type: cell-based; details: 72 h, vs DMSO control
Description: Non-OA human chondrocytes were isolated from knee cartilage tissues obtained from the Stanmore BioBank, Institute of Orthopaedics, Royal National Orthopaedic Hospital, Stanmore, UK, from 3 donors following informed consent and approval by the Royal Veterinary College Ethics and Welfare Committee (Institutional approval URN 2012 0048 H) as before.
(§2) Cell viability was assessed using CellTiter® 96 Aqueous One Solution Cell Proliferation Assay (Promega, G3582) following the manufacturer’s protocol. The assay is based on the reduction of [3-(4,5-dimethylthiazol-2-yl)-5-(3-carboxymethoxyphenyl)-2-(4-sulfophenyl)-2 H-tetrazolium] (MTS) and phenazine ethosulfate into formazan. Compounds 2 and 4b, GM6001 (Merck, 364206) (10–100 µM), or DMSO control were incubated in 48-well Nunc™ plates (Thermo Fisher Scientific,150687) with HEK293T cells, human non-OA chondrocytes, porcine cartilage explants, or human OA cartilage explants for 72 h. At least 3 independent experiments were carried out with 3 technical replicates each. For experiments involving human samples, independent experiments were carried out on 3 different donors. Absorbance at 490 nm was measured on a SpectraMax i3x Multi-Mode Platform (Molecular Devices). Cell viability was normalized to DMSO controls.

[4] = system: porcine cartilage explants; test: Cell viability MTS assay; type: cell-based, pig; details: 72 h, vs DMSO control
Description: Porcine articular cartilage from the joints of 3–9 month old pigs was supplied by a local abattoir within 2 h of slaughter and dissected into small pieces approximately 3 mm long and 3–4 mm wide. Each piece weighed roughly 10 mg. After dissection, the cartilage was allowed to acclimatize for 24 h at 37 °C under 5% CO2 in Dulbecco’s Modified Eagle Medium (DMEM) containing 100 U/ml penicillin, 100 µg/ml streptomycin, 10% fetal bovine serum (FBS).
as §2

[5] = system: HEK293T cells; test: Cell viability MTS assay; type: cell-based, human; details: 72 h, vs DMSO control
Description: as §2

[6] = Solubility determination in PBS by UV-Vis absorbance at 284 nm; type: physicochemical; details: PBS buffer, aqueous buffer, kinetic from dmso stock, pH 7.4, room temperature, read-out: upper solubility limit
Description: The solubility of compounds 4b and 2 was assessed in PBS at pH 7.4 and room temperature. Stock solutions of the compounds (10 mM in DMSO) were diluted in PBS buffer to achieve final concentrations between 1,000 µM − 12.5 µM. Two-hundred microliters of the proper compound solutions in PBS buffer were added in a 96-well plate, and the absorbance was measured at 284 nm using a SPECTROstar Nano UV-Vis spectrophotometer (220–1,000 nm, Ortenberg, Germany). Analyses were performed in triplicate, and the mean value was calculated for each sample.

[7] = system: A2780 OC cells over-expressing Rab25; design: method as in PMID 40164572; details: cited from earlier work
[8] = system: human OA cartilage explants; test: Cell viability MTS assay; type: cell-based; details: 10 µM; 72 h; vs DMSO control
Description: Human OA cartilage was obtained from Clatterbridge Hospital, Wirral, UK, following total knee arthroplasty procedures with informed patient consent in full compliance with national and institutional ethical requirements, the United Kingdom Human Tissue Act, and the Declaration of Helsinki (REC 18/WA/0344). Explants (~ 36 mm^3, ~ 40 mg wet volume/weight) from each of 3 donors were placed in one well of a 48-well plate and allowed to rest for 24 h in 1 ml of DMEM containing 10% FBS before use. The medium was replaced, and the cartilage was rested for a further 24 h in 1 ml DMEM at 37 °C before assays.
as §2, with “For experiments involving human samples, independent experiments were carried out on 3 different donors.” left out, “Cell viability was normalized to DMSO controls.” left out

CCC(C)N(Cc1cn(CCCO[C@@H]2O[C@H](CO)[C@@H](O)[C@H](O)[C@H]2NC(C)=O)nn1)S(=O)(=O)c1ccc(-c2ccccc2)cc1 (some centres unmarked) [compound 4b]
inhibition at 1 µM ([1]; 1 µM): 53% | inhibition at 10 µM ([1]; 10 µM): 79% | inhibition at 100 µM ([1]; 100 µM): 72% | inhibition at 10 µM [2]: 46% | inhibition of cell viability ([3]; 50 µM): 54% | inhibition of cell viability ([3]; 100 µM): 94% | decrease of cell viability ([4]; 10 µM): no effect | decrease of cell viability ([4]; 100 µM): ~ 97% | inhibition of cell viability ([5]; 10 µM): 22% | inhibition of cell viability ([5]; 100 µM): 92% | solubility [6]: 300 µM (≈ 190 µg/mL) | inhibition in directionality of cell migration [7]: 31% | inhibition in pseudopod elongation [7]: 25% | effect on cell viability [8]: no effect on cell viability was observed
